Reference: ChEMBL document CHEMBL1201862, “PubChem BioAssay data set” (2004)
Where “and” joins values, the source holds several entries; their conditions need not be identical. Equal values may be shown once.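 48-hour exposure; five concentrations; linearly interpolated endpoints. GI50 is the concentration that inhibits growth by half.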 Calls of active or inactive are those of the source. Cut-off read from the data, not from the text of the source: active = GI50 up to about 1.1 µM and inactive = higher.

How the values were obtained:
Test in all cases: NCI-60 cell line screen, 48 h
DU-145 = system: DU-145
SK-MEL-28 = system: SK-MEL-28
M14 = system: M14
Hs-578T = system: Hs-578T
HCT-15 = system: HCT-15
SK-OV-3 = system: SK-OV-3
NCI/ADR-RES = system: NCI/ADR-RES
SK-MEL-5 = system: SK-MEL-5
OVCAR-8 = system: OVCAR-8
OVCAR-5 = system: OVCAR-5
UACC-62 = system: UACC-62
SF-295 = system: SF-295
HCC 2998 = system: HCC 2998
HT-29 = system: HT-29
SF-268 = system: SF-268
NCI-H522 = system: NCI-H522
K562 = system: K562
Malme-3M = system: Malme-3M
SK-MEL-2 = system: SK-MEL-2

| SMILES | GI50 (DU-145) | GI50 (SK-MEL-28) | GI50 (M14) | GI50 (Hs-578T) | GI50 (HCT-15) | GI50 (SK-OV-3) | GI50 (NCI/ADR-RES) | GI50 (SK-MEL-5) | GI50 (OVCAR-8) | GI50 (OVCAR-5) | GI50 (UACC-62) | GI50 (SF-295) | GI50 (HCC 2998) | GI50 (HT-29) | GI50 (SF-268) | GI50 (NCI-H522) | GI50 (K562) | GI50 (Malme-3M) | GI50 (SK-MEL-2) |
| --- | --- | --- | --- | --- | --- | --- | --- | --- | --- | --- | --- | --- | --- | --- | --- | --- | --- | --- | --- |
| CCOC(=O)C(NC(=O)CC)(Nc1ccc(S(=O)(=O)Nc2ncccn2)cc1)C(F)(F)F (configuration not stated) | > 100 µM (inactive) | > 100 µM (inactive) | > 100 µM (inactive) | > 100 µM (inactive) | > 100 µM | > 100 µM (inactive) | > 100 µM (inactive) | > 100 µM (inactive) | > 100 µM (inactive) | > 100 µM (inactive) | > 100 µM (inactive) | > 100 µM (inactive) | > 100 µM (inactive) | > 100 µM (inactive) | > 100 µM (inactive) | > 100 µM (inactive) | > 100 µM (inactive) | > 100 µM (inactive) |  |
| O=C(/C=C\c1ccccc1)Oc1ccc(/C=C2\CCC/C(=C\c3ccc(OC(=O)/C=C\c4ccccc4)cc3)C2=O)cc1 | > 100 µM (inactive) | > 100 µM (inactive) | > 100 µM (inactive) | > 100 µM (inactive) | > 100 µM |  | > 100 µM (inactive) | > 100 µM (inactive) | > 100 µM (inactive) | > 100 µM (inactive) | > 100 µM (inactive) | > 100 µM (inactive) | > 100 µM (inactive) | > 100 µM (inactive) | > 100 µM (inactive) | > 100 µM (inactive) |  |  | > 100 µM (inactive) |
| COc1nc(N)c(NC2OC(CO)C(O)C2O)c(=O)[nH]1 (configuration not stated) | > 100 µM (inactive) | > 100 µM (inactive) | > 100 µM (inactive) | > 100 µM (inactive) | > 100 µM | > 100 µM (inactive) | > 100 µM (inactive) | > 100 µM (inactive) | > 100 µM (inactive) | > 100 µM (inactive) | > 100 µM (inactive) | > 100 µM (inactive) | > 100 µM (inactive) | > 100 µM (inactive) | > 100 µM (inactive) |  | > 100 µM (inactive) | > 100 µM (inactive) and 75.5 µM (inactive) | > 100 µM (inactive) |
| Cc1ccc(C2=Nn3c(nc4sc5c(c4c3=O)CCCC5)SC2)cc1 | > 100 µM (inactive) | > 100 µM (inactive) |  | 35.7 µM (inactive) | > 100 µM | > 100 µM (inactive) | > 100 µM (inactive) | > 100 µM (inactive) | > 100 µM (inactive) | > 100 µM (inactive) | > 100 µM (inactive) | > 100 µM (inactive) | > 100 µM (inactive) | > 100 µM (inactive) | > 100 µM (inactive) | > 100 µM (inactive) | > 100 µM (inactive) | > 100 µM (inactive) |  |
| Cc1c2n(c3ccccc13)S(=O)(=O)c1ccccc1-2 | 47.2 µM (inactive) | > 100 µM (inactive) | 27.4 µM (inactive) | 18.7 µM (inactive) | 48.1 µM | 14.6 µM (inactive) | 28.1 µM (inactive) | 72.1 µM (inactive) | 21.2 µM (inactive) | 88.3 µM (inactive) | 28.1 µM (inactive) | 17.3 µM (inactive) | > 100 µM (inactive) | 15.4 µM (inactive) |  | 34.2 µM (inactive) | > 100 µM (inactive) | 33.1 µM (inactive) |  |
| C/C=N\n1c(C)n[nH]c1=O | > 100 µM (inactive) | > 100 µM (inactive) | > 100 µM (inactive) | > 100 µM (inactive) | > 100 µM |  | > 100 µM (inactive) | > 100 µM (inactive) | > 100 µM (inactive) | > 100 µM (inactive) | > 100 µM (inactive) | > 100 µM (inactive) | > 100 µM (inactive) | > 100 µM (inactive) | > 100 µM (inactive) | > 100 µM (inactive) | > 100 µM (inactive) | > 100 µM (inactive) | > 100 µM (inactive) |
| CC(=O)C(=[N+]=[N-])C(=O)OC(C)(C)C#N | > 10 µM (inactive) | > 10 µM (inactive) | > 10 µM (inactive) | > 10 µM (inactive) | > 10 µM | > 10 µM (inactive) | > 10 µM (inactive) | > 10 µM (inactive) | > 10 µM (inactive) | > 10 µM (inactive) | > 10 µM (inactive) | > 10 µM (inactive) | > 10 µM (inactive) | > 10 µM (inactive) | > 10 µM (inactive) |  | > 10 µM (inactive) | > 10 µM (inactive) | > 10 µM (inactive) |
| CCCCCc1c(Cl)nc(Cl)nc1Cl | 21.7 µM (inactive) | 16.5 µM (inactive) | 1.56 µM (inactive) | 43.3 µM (inactive) | 6.17 µM | 10.5 µM (inactive) | 12.1 µM (inactive) | 5.81 µM (inactive) | 10.4 µM (inactive) | 12.7 µM (inactive) | 15.3 µM (inactive) | 25.1 µM (inactive) | 11.1 µM (inactive) | 3.59 µM (inactive) | 11.1 µM (inactive) | 0.625 µM (active) | 2.18 µM (inactive) | 2.59 µM (inactive) |  |
| COc1ccc2c3c1OC1c4[nH]c5ccccc5c4CC4(O)C(C2)N(C)CCC314 (configuration not stated) | 57.9 µM (inactive) | 17.4 µM (inactive) | 17.1 µM (inactive) | 21.3 µM (inactive) | 46.6 µM | > 100 µM (inactive) | 63.4 µM (inactive) | 15.2 µM (inactive) | 66.4 µM (inactive) | 71.6 µM (inactive) | 20.9 µM (inactive) | 82.4 µM (inactive) | 16.4 µM (inactive) | 22 µM (inactive) | 36.6 µM (inactive) | 25.1 µM (inactive) | 15.3 µM (inactive) |  | 18.4 µM (inactive) |
| COc1ccc(CCNC(=O)Cc2ccccc2CO)cc1OC | > 100 µM (inactive) | > 100 µM (inactive) | > 100 µM (inactive) | > 100 µM (inactive) | > 100 µM | > 100 µM (inactive) | > 100 µM (inactive) | > 100 µM (inactive) | > 100 µM (inactive) | > 100 µM (inactive) | > 100 µM (inactive) | > 100 µM (inactive) | > 100 µM (inactive) | > 100 µM (inactive) | > 100 µM (inactive) | > 100 µM (inactive) | > 100 µM (inactive) |  | > 100 µM (inactive) |
| O=C1C2=Nc3ccccc3C(O)N2c2ccccc21 (configuration not stated) | 53.3 µM (inactive) | 23.4 µM (inactive) | > 78.2 µM (inactive) | 40.5 µM (inactive) | 16.6 µM | 68.2 µM (inactive) | 40.3 µM (inactive) | 1.95 µM (inactive) | 32.3 µM (inactive) | 81.1 µM (inactive) | 3.51 µM (inactive) | 35.9 µM (inactive) | 27.2 µM (inactive) | 58.2 µM (inactive) | 31.6 µM (inactive) | 8.91 µM (inactive) | > 76 µM (inactive) | 14.3 µM (inactive) |  |
| COC(=O)[C@H](Cc1ccccc1)NC(=O)c1ccc(CNC(=O)/C=C/c2ccc(-c3ccccc3)cc2)cc1 | > 100 µM (inactive) | > 100 µM (inactive) | 94.6 µM (inactive) | 22.8 µM (inactive) | > 100 µM | 57.8 µM (inactive) | 59.8 µM (inactive) | > 100 µM (inactive) | 7.1 µM (inactive) | 59.4 µM (inactive) | 44.2 µM (inactive) | 19.7 µM (inactive) | 11.5 µM (inactive) | 3.71 µM (inactive) | 15.2 µM (inactive) |  | 77.1 µM (inactive) | 24.9 µM (inactive) | > 100 µM (inactive) |
| CCOC(=O)C(C(=O)OCC)C(NC(=O)Nc1cc(C(F)(F)F)ccc1OC)(C(F)(F)F)C(F)(F)F | 40.3 µM (inactive) | 37.5 µM (inactive) | 21.1 µM (inactive) | 25.2 µM (inactive) | 45.8 µM | 47.6 µM (inactive) | 28.6 µM (inactive) | 19.4 µM (inactive) | 31.6 µM (inactive) | 45.8 µM (inactive) | 22.5 µM (inactive) | 23.2 µM (inactive) | 25.6 µM (inactive) | 35.8 µM (inactive) | 36.4 µM (inactive) | 22.3 µM (inactive) | 24.2 µM (inactive) | 24.5 µM (inactive) |  |
| CC(C)CC(NP(=O)(O)OC1OC(C)C(O)C(O)C1O)C(=O)NC(Cc1c[nH]c2ccccc12)C(=O)O (configuration not stated) | > 100 µM (inactive) | > 100 µM (inactive) | > 100 µM (inactive) | > 100 µM (inactive) | > 100 µM | > 100 µM (inactive) | > 100 µM (inactive) | > 100 µM (inactive) | > 100 µM (inactive) | > 100 µM (inactive) | > 100 µM (inactive) | > 100 µM (inactive) | > 100 µM (inactive) | > 100 µM (inactive) | > 100 µM (inactive) | > 100 µM (inactive) | > 100 µM (inactive) | > 100 µM (inactive) |  |
| O=S(=O)(O)c1cc(Nc2ccnc3ccccc23)c2c(S(=O)(=O)O)cc(S(=O)(=O)O)cc2c1 | > 100 µM (inactive) | > 100 µM (inactive) | > 100 µM (inactive) | > 100 µM (inactive) | > 100 µM | > 100 µM (inactive) | > 100 µM (inactive) | > 100 µM (inactive) | > 100 µM (inactive) | > 100 µM (inactive) | > 100 µM (inactive) |  | > 100 µM (inactive) | > 100 µM (inactive) | > 100 µM (inactive) | > 100 µM (inactive) |  | > 100 µM (inactive) | > 100 µM (inactive) |
| COc1ccc(/N=c2/[nH]c(N)c(C(=O)c3ccc(OC)cc3)s2)cc1 | 0.378 µM (active) | 4.55 µM (inactive) |  | 0.277 µM (active) | 0.412 µM | 0.376 µM (active) | 0.211 µM (active) | 0.381 µM (active) | 0.537 µM (active) | 15.3 µM (inactive) | 0.481 µM (active) | 0.159 µM (active) | 0.755 µM (active) | 0.316 µM (active) | 12.9 µM (inactive) | 0.127 µM (active) | 0.0492 µM (active) |  | 0.288 µM (active) |
